Measured values as given in patent US11414379B2, “SPAK kinase inhibitors as neuroprotective agents” (United States Government as represented by the Department …, priority 2018, dated 2022).

Key:
Test in all cases: Phosphorylation immunoblot in KCC2-transfected HEK293 cells
Format in all cases: cell-based, human
KCC2 pThr1007 = system: KCC2 pThr1007; set-up: key: “—” showed no inhibition of phosphorylation of SPAK/NKCC1/KC22; settings: concentration inhibiting phosphorylation; for KCC2 pThr1007 (μM) hypo: hypotonic low Cl- conditions; for KCC2 pThr1007 (μM) Iso: isotonic conditions
Procedure: (§1) HEK293 (human embryonic kidney 293) cells were cultured on 10-cm-diameter dishes in DMEM supplemented with 10% (v/v) foetal bovine serum, 2 mM L-glutamine, 100 U/ml penicillin and 0.1 mg/ml streptomycin. HEK293 cells were transfected with a mixture of 20 μl of 1 mg/ml polyethylenimine (Polysciences) and 5-10 μg of plasmid DNA as described previously (Durocher et al., 2002). 36 hours post-transfection cells were stimulated with either control isotonic or hypotonic medium for a period of 30 minutes. Cells were lysed in 0.3 mL of ice-cold lysis buffer/dish, lysates were clarified by centrifugation at 4° C. for 15 minutes at 26,000 g and the supernatant aliquots were frozen in liquid nitrogen and stored at −20° C. Protein concentrations were determined using the Bradford method. Cells were treated with the indicated concentrations of the SPAK/OSR1 inhibitors. […] Hypotonic low chloride buffer was 67.5 mM sodium-gluconate, 2.5 mM potassium-gluconate, 0.25 mM CaCl2), 0.25 mM MgCl2, 0.5 mM Na2HPO4, 0.5 mM Na2SO4 and 7.5 mM HEPES (pH 7.5).
(§2) The membranes were incubated for 30 min with TBST (Tris-buffered saline, 0.05% Tween-20) containing 5% (w/v) skim milk. The blots were then washed six times with TBST and incubated for 1 hour at room temperature with secondary HRP-conjugated antibodies diluted 5000-fold in 5% (w/v) skim milk in TBST. After repeating the washing steps, signals were detected with enhanced chemiluminescence reagent. Immunoblots were developed using a film automatic processor (SRX-101; Konica Minolta Medical) and films were scanned at 600 dpi (PowerLook 1000; UMAX). Figures were generated using Photoshop/Illustrator (Adobe). The densities of bands were measured with ImageJ. For phospho-antibody immunoprecipitation, KCC isoforms were immunoprecipitated from indicated cell extracts. 2 mg of the indicated clarified cell extract were mixed with 15 μg of the indicated phospho-specific KCC antibody conjugated to 15 μl of protein-G-Sepharose, in the added presence of […] of the dephosphorylated form of the phosphopeptide antigen, and incubated 2 hours at 4° C. with gentle shaking. Immunoprecipitates were washed three times with 1 mL of lysis buffer containing 0.15 M NaCl and twice with 1 ml of buffer A. Bound proteins were eluted with 1×LDS sample buffer.
(§3) HEK293 cells were transfected with a DNA construct encoding wild type N-terminally FLAG-tagged KCC2. 36 hrs post-transfection, cells were exposed 30 min to either control isotonic or hypotonic low [C1^−] conditions, then treated in the same conditions for an additional 30 min with the indicated inhibitors at the concentrations noted. Cell lysates were subjected to SDS-PAGE and Western blotting with the indicated antibodies. See FIG. 3 for Western blot quantitation.
(§4) Referring to FIG. 2, concentration-response experiments testing effects of Closantel analogs on phosphorylation of KCC2 Thr906/Thr1007 are shown. HEK293 cells were transfected with DNA construct encoding wild type N-terminally FLAG-tagged KCC2. 36 h post-transfection, cells were exposed 30 min to either control isotonic conditions or hypotonic low Cl^− conditions, then treated in the same conditions with the specified inhibitors (1b, 1c, 1f, 1d, 1h, and 1g, respectively) at the indicated concentrations for an additional 30 min. Lysates were subjected to SDS-PAGE and Western blotting with the indicated antibodies.
(§5) Referring to FIG. 3, HEK293 cells were transfected with the DNA construct encoding wild type N-terminally FLAG-tagged KCC2. 36 h post-transfection, cells were exposed 30 min to either control isotonic or hypotonic low Cl^− conditions, then treated in the same conditions with the specified inhibitors at the indicated concen-trations for an additional 30 min. Lysates were subjected to SDS-PAGE and Western blotting with the indicated antibodies. Closantel, STOCK1S-14279 and STOCK1S-50699 were used as reference compounds.

KCC2 pThr906 = system: KCC2 pThr906; set-up: key: “—” showed no inhibition of phosphorylation of SPAK/NKCC1/KC22; settings: concentration inhibiting phosphorylation; for KCC2 pThr906 (μM) hypo: hypotonic low Cl- conditions; for KCC2 pThr906 (μM) Iso: isotonic conditions
Procedure: as §1, §2, §3, §4, §5

SPAK pSer373 = system: SPAK pSer373; set-up: key: “—” showed no inhibition of phosphorylation of SPAK/NKCC1/KC22; settings: concentration inhibiting phosphorylation; for SPAK pSer373 (μM) hypo: hypotonic low Cl- conditions; for SPAK pSer373 (μM) Iso: isotonic conditions
Procedure: as §1, §2, §3, §4, §5

NKCC1 pThr203 = system: NKCC1 pThr203; set-up: key to NKCC1 pThr203 (μM) Iso / NKCC1 pThr203 (μM) hypo: “—” showed no inhibition of phosphorylation of SPAK/NKCC1/KC22; settings: concentration inhibiting phosphorylation; for NKCC1 pThr203 (μM) hypo: hypotonic low Cl- conditions; for NKCC1 pThr203 (μM) Iso: isotonic conditions
Procedure: as §1, §2, §3, §4, §5

Structure (SMILES) | KCC2 pThr1007 (μM) hypo (KCC2 pThr1007) | KCC2 pThr1007 (μM) Iso (KCC2 pThr1007) | KCC2 pThr906 (μM) hypo (KCC2 pThr906) | KCC2 pThr906 (μM) Iso (KCC2 pThr906) | SPAK pSer373 (μM) hypo (SPAK pSer373) | SPAK pSer373 (μM) Iso (SPAK pSer373) | NKCC1 pThr203 (μM) hypo (NKCC1 pThr203) | NKCC1 pThr203 (μM) Iso (NKCC1 pThr203)
Cc1cc(C(C#N)c2ccc(Cl)cc2)c(Cl)cc1NC(=O)c1ccccc1[N+](=O)[O-] (stereo not shown) [Compound 1e, N-(5-chloro-4-((4-chlorophenyl)(cyano)methyl)-2-methylphenyl)-2-nitrobenzamide] | — | — | — | — | — | — | — | —
COc1ccc(Cl)cc1C(=O)Nc1cc(Cl)c(C(C#N)c2ccc(Cl)cc2)cc1C (stereo not shown) [Compound 1j] | — | — | — | — | — | — | — | —
Cc1cc(C(C#N)c2ccc(Cl)cc2)c(Cl)cc1NC(=O)c1ccccc1O (stereo not shown) [Compound 1b, N-(5-chloro-4-((4-chlorophenyl)(cyano)methyl)-2-methylphenyl)-2-hydroxy-benzamide] | 3, 3 μM | 3, 3 μM | 10, 10 μM | 10, 10 μM | 3, 3 μM | 3, 3 μM | 1 μM | 3 μM
Cc1cc(C(C#N)c2ccc(Cl)cc2)c(Cl)cc1NC(=O)c1cc(Cl)cc(Cl)c1O (stereo not shown) [Compound 1f, 3,5-dichloro-n-(5-chloro-4-((4-chlorophenyl)(cyano)methyl)-2-methylphenyl)-2-hydroxy-benzamide] | 3, 3 μM | 3, 3 μM | 10, 10 μM | 10, 10 μM | 3, 3 μM | 3, 3 μM | 3 μM | 1 μM
Cc1cc(C(C#N)c2ccc(Cl)cc2)c(Cl)cc1NC(=O)c1cc(F)ccc1O (stereo not shown) [Compound 1g] | 3, 3 μM | 3, 3 μM | 10, 10 μM | 10, 10 μM | 3, 3 μM | 3, 3 μM | 3 μM | 1 μM
